Test results reported in ChEMBL document CHEMBL4219230, “Design, synthesis and biological evaluation of novel 4-phenylisoquinolinone BET bromodomain inhibitors” (Bioorg Med Chem Lett, 2018).
≈ marks a conversion by molar mass, not a printed value.

Legend:
[1] = Protein binding in mouse plasma; format: ADME, cell-free; conditions: read-out: PPB (converted)
[2] = Protein binding in human plasma; format: ADME, cell-free; conditions: read-out: PPB (converted)
in vivo = conditions: CD1, mouse, po, 10 mg/kg
in vitro [3] = conditions: mouse
Description: Half life in mouse liver microsomes

in vitro [4] = conditions: dog, MDCK-MDR1
Description: Permeability across apical to basolateral side in MDCK cells expressing MDR1

physchem = conditions: buffer, pH 7.4
Description: Solubility of the compound at pH 7.4

Row | SMILES | fraction unbound [1] | fraction unbound [2] | AUC(0-t) at 6 h (in vivo) [ng·h/mL] | half-life (in vitro [3]; liver microsomes) [min] | Papp A→B (in vitro [4]) [×10⁻⁶ cm/s] | solubility (physchem) [µg/mL] | half-life (in vitro [3]; microsomes) [min]
1 | CCOc1ccc(S(=O)(=O)CC)cc1-c1cn(C)c(=O)c2ccc(-c3cnn(C)c3)cc12 | 0.14 | 0.12 | 11400 | > 200 | 6 | 12 (≈ 26.6 µM) | –
2 | CCNC(=O)C[C@@H]1N=C(c2ccc(Cl)cc2)c2cc(OC)ccc2-n2c(C)nnc21 [MOLIBRESIB] | – | – | – | – | – | – | 95
